Patent publication US6410265B1, “Gene encoding a putive efflux protein for solvents/antibiotics in Pseudomonas mendocina” (priority 1997, dated 2002)

Tests used:
4.5X(−) Pseudomonas = experiment: Antibiotic resistance: colony growth on LB/agar plates with antibiotics; assay type: cell-based, Pseudomonas mendocina; conditions: strain with disrupted 4.5X gene; agar plates, concentration ranging from 5 1μg/mL to 25 μg/mL
Protocol: (§1) The transformed Pseudomonas mendocina KR-1, carrying the disrupted putative efflux 4.5X gene, was grown on the agar plates in the presence of different antibiotics or high concentration of PHBA. The growth of the strain with the disrupted 4.5X gene was compared with that of wild type Pseudomonas mendocina strain KR-1.
The colonies were innoculated on the LB plates with different antibiotics separately. The antibiotics include Amp (50 μg/mL), Strep (10 μg/mL), Tec (10 μg/mL), Kam (25 μg/mL) and CM (5 μg/mL, 15 μg/mL and 25 μg/mL). The plates were kept at 30° C. for 48 hour. The growth of the colonies was scored based on the growth of wildtype strain KR-1 and the growth of these colonies on LB plates.

4.5X(−) = experiment: Sensitivity to PHBA: cell growth in liquid minimal medium by optical density; assay type: cell-based, Pseudomonas mendocina; conditions: in the presence of 50 mM PHBA, same condition for both strains
Protocol: as §1
The cells were innoculated in the liquid medium consisting of minimal medium (in 1 L solution, sodium phosphate, monobasic, 1.85 g; potassium phosphate, dibasic, 5.84 g; ammonia sulphate, 1.5 g; yeast extract, 500 mg; 1x minerals, 2% glucose and 50 mM PHBA). The cultures were kept at 30° C. in a shaker incubator for 48 hours. The cell growth was monitored by optical density (O.D) measurements using a spectrophotometer.

Compound: O=C(N[C@H](CO)[C@H](O)c1ccc([N+](=O)[O-])cc1)C(Cl)Cl [CM, choromphenecol]
- Growth on plates with chloramphenicol (4.5X(−) Pseudomonas): unable to grow

Compound: O=C(O)c1ccc(O)cc1 [PHBA, p-hydroxybenzoic acid]
- Growth of 4.5X(−) strain relative to wildtype strain (4.5X(−)): four times slower
